The values that follow come from ChEMBL document CHEMBL4371091, “Hypalocrinins, Taurine-Conjugated Anthraquinone and Biaryl Pigments from the Deep Sea Crinoid Hypalocrinus naresianus” (J Nat Prod, 2019).

Calls of active or inactive are those of the source. The rule behind the calls is not given here.

The nature of data set [1]: Solubility of the compound in water. Format: physicochemical. Conditions: buffer.
In data set [2] the test system is A549. Nature of the data set: Cytotoxicity against human A549 cells at 25 ug/ml. In kind it is functional, cell-based.
For data set [3], the system named is HT-29. The data set is described as follows: Cytotoxicity against human HT-29 cells at 25 ug/ml. In kind it is functional, cell-based.
The test system of data set [4] is MDA-MB-231. Nature of the data set: Cytotoxicity against human MDA-MB-231 cells at 25 ug/ml. Format: functional, cell-based.
In data set [5] the test system is PSN1. Nature of the data set: Cytotoxicity against human PSN1 cells at 25 ug/ml. Format: functional, cell-based.

Turning to `O=C(O)c1cc(O)c2c(c1)C(=O)c1cc(O)c(Br)c(O)c1C2=O`, the solubility result in data set [1] is “Soluble”.
With `O=C(NCCS(=O)(=O)O)c1cc(O)c2c(c1)C(=O)c1c(c(O)c(Br)c(O)c1-c1c(O)cc3c(c1O)C(=O)c1c(OS(=O)(=O)O)cc(C(=O)NCCS(=O)(=O)O)cc1C3=O)C2=O`, the solubility result in data set [1] is listed as “Soluble”.
Same read-out and setting: the entry for `O=C(NCCS(=O)(=O)O)c1cc(O)c2c(c1)C(=O)c1cc(O)c(CNCCS(=O)(=O)O)c(O)c1C2=O` is “Soluble”; for `CCCc1cc(O)c2c(c1)C(=O)c1cc(OS(=O)(=O)O)cc(O)c1C2=O` it is “Soluble”; for `O=C(NCCS(=O)(=O)O)c1cc(OS(=O)(=O)O)c2c(c1)C(=O)c1cc(O)c(-c3c(O)c(Br)c(O)c4c3C(=O)c3cc(C(=O)NCCS(=O)(=O)O)cc(OS(=O)(=O)O)c3C4=O)c(O)c1C2=O` it is “Soluble”.
Still for that read-out and setting: with `O=C(NCCS(=O)(=O)O)c1cc(OS(=O)(=O)O)c2c(c1)C(=O)c1cc(O)c(Br)c(O)c1C2=O` the entry was “Soluble”.
The same measure, in the same setting: with `O=C(NCCS(=O)(=O)O)c1cc(O)c2c(c1)C(=O)c1cc(O)cc(O)c1C2=O` the entry was “Soluble”.
Regarding `CCCc1cc(O)c2c(c1)C(=O)c1cc(O)c(CNCCS(=O)(=O)O)c(O)c1C2=O`, in data set [1], the solubility entry is reported as “Soluble”.
`O=C(NCCS(=O)(=O)O)c1cc(O)c2c(c1)C(=O)c1cc(O)c(Br)c(O)c1C2=O`: the outcome in data set [2], in data set [3], in data set [4] and in data set [5] was inactive. The solubility result in data set [1] was “Soluble”.
